Converted amounts (≈) assume the structure as drawn. Like-named read-outs stand apart in the source and are kept apart here.
How the values were obtained:
[1] = test system: feline immunodeficiency virus (FIV TM-2 strain); test: Anti-FIV activity in MYA-1 feline T-cells, virus amount by RT activity; type: cell-based; conditions: FIV TM-2 in MYA-1 cells, RT activity at 10 days postinfection
Protocol: (1) The serial 5 fold diluted samples were plated in 24 well microtiter plate. Feline T-cell lines (MYA-1 cells: 4×10^5 cells/well) and feline immunodeficiency virus (FIV TM-2 strain: 3000 cpm/well) were added to each well. The cells were cultured with 1.5 ml RPMI medium supplemented with 10% fetal bovine serum, 2 μg/ml polybrene, 100 unit/ml human recombinant IL-2 and 50 μM 2-mercaptoethanol in CO2 incubator at 37° C.
1. Preparation of FIV TM-2: FIV TM-2 was infected to MYA-1 cells (1×10^6 cells). The cells were cultured in 10 ml RPMI medium supplemented with 10% fetal bovine serum, 2 μg/ml polybrene, 100 unit/ml human recombinant IL-2 and 50 μM 2-mercaptoethanol in CO2 incubator at 37° C. Every 1-2 days, the cells were separated from the supernatant by centrifugation and continued culture with new medium. Each of the supernatant was filtrated by 0.45 μm filter, measured RT activity, and stored at as −80° C. as FIV stock virus.
(2) Every 1-2 days, the supernatants were measured the amount of the virus by RT activity (as same as experimental example 2).

HIV-1 NL432 = test: Anti-HIV/SIV activity in infected Molt-4 cells, virus amount by RT activity; type: cell-based; conditions: RT activity of supernatant at 5 days postinfection
Protocol: (§1) (1) Molt-4 cells (2×10^6 cells) were infected with HIV-1 NL432 (4×10^6 cpm), HIV-2 Rod (8×10^6 cpm), SIVmac MA239 (8×10^6 cpm) and SIVagm SA212 (8×10^6 cpm), and incubated for 1 hr at room temperature.
(§2) (1) Preparation of HIV-1 NL432: SW480 cells were cultured in DMEM medium supplemented with 10% fetal bovine serum using 25 cm^2 flask. HIV-1 infectious molecular DNA (40 μg), pNL432, transfected to the cells by calcium phosphate coprecipitation method, and the supernatant (2 ml) at 2-3 days post-transfection was infected to M8166 cells (1×10^6 cells). The cells were cultured in 10 ml RPMI medium supplemented with 10% fetal bovine serum in CO2 incubator at 37° C. After apparent giant cells were observed, the cells were removed by centrifugation and then the supernatant was filtrated by 0.45 μm filter, measured RT activity, and stored at −80° C. as HIV-1 stock virus.
(§3) (2) The cells were washed twice to remove the viruses and suspended in 10 ml RPMI medium supplemented with 10% fetal bovine serum. The infected cells (100 μl) were plated in 96 well microtiter plates containing with the serial 5 fold dilution of compounds (100 μl) and cultured in CO2 incubator at 37° C.
(§4) (3) The supernatant at 5 days postinfection was harvested and measured the amount of the virus by RT activity.
(§5) Preparation of the solution for RT assay:
(§6) A reaction mixture (90 μl) were contained 50 mM Tris-HCl, pH 8.3, 150 mM KCl, 10 mM MgCl2, 0.1% Nonidet P-40, 10 mM DTT (dithiothreitol), 5 μg/ml poly(rA), 5 μg/ml (dT)12-18 and 1 μCi [^3H] dTTP at final concentration after mixture of a sample (10 μl).
(§7) The procedure of RT assay:
(§8) 1. 10 μl of sample was plated to 3 wells of 96 well microtiter plate (triplicate assay).
(§9) 2. Reaction mixture (90 μl) chilled at 4° C. was added to each well, mixed and then incubate at 37° C. for 3 hrs.
(§10) 3. After incubation, the plate was chilled on ice, and passed through a DEAE-Filtermat using cell harvester. The filter was washed with 4.5% Na2HPO4 (20 sec) and H2O (10 sec).
(§11) 4. The filter was dried at 95° C. for 15 min.
(§12) 5. 10 ml of scintilator was added and sealed.
(§13) 6. Radioactivity was measured by LKB Beta Plate scintillation spectroscopy.
(§14) 7. RT activity (cpm/ml) was calculated from average of three wells.

SIVagm SA212 = test: as above; type: cell-based; conditions: RT activity of supernatant at 5 days postinfection
Protocol: as §1
(4) Preparation of SIVagm SA212: SW480 cells were cultured in DMEM medium supplemented with 10% fetal bovine serum using 25 cm^2 flask. SIVagm SA212 infectious molecular DNA (40 μg), pSA212, transfected to the cells by calcium phosphate coprecipitation methods, and the supernatant (2 ml) at 2-3 days post-transfection was infected to M8166 cells (1×10^6 cells). The cells were cultured in 10 ml RPMI medium supplemented with 10% fetal bovine serum in CO2 incubator at 37° C. Every 3 days, the cells were separated from the supernatant by centrifugation and continued culture with new medium. The each supernatant was filtrated by 0.45 μm filter, measured RT activity, and stored at −80° C. as SIVagm stock virus.
as §3, §4, §5, §6, §7, §8, §9, §10, §11, §12, §13, §14

SIVmac MA239 = test: as above; type: cell-based; conditions: RT activity of supernatant at 5 days postinfection
Protocol: as §1
as §2, with “(3) Preparation” for “(1) Preparation”, “of SIVmac MA239:” for “of HIV-1 NL432:”, “flask. SIVmac MA239” for “flask. HIV-1”, “μg), pMA239,” for “μg), pNL432,”, “to CEMX174” for “to M8166”, “as SIVmac” for “as HIV-1”
as §3, §4, §5, §6, §7, §8, §9, §10, §11, §12, §13, §14

HIV-2 Rod = test: as above; type: cell-based; conditions: RT activity of supernatant at 5 days postinfection
Protocol: as §1
(2) Preparation of […] Rod: HIV-2 Rod was infected to M8166 cells (1×10^6 cells). The cells were cultured in 10 ml RPMI medium supplemented with 10% fetal bovine serum in CO2 incubator at 37° C. After apparent giant cells were observed, the cells were removed by centrifugation and then the supernatant was filtrated by 0.45 μm filter, measured RT activity, and stored at −80° C. as HIV-2 stock virus.
as §3, §4, §5, §6, §7, §8, §9, §10, §11, §12, §13, §14

HIV-1 integrase = HIV-1 integrase (Human immunodeficiency virus type 1 group M subtype B, UniProt P12497); test: HIV-1 integrase inhibition assay (microtiter plate, substrate/target DNA, OD 405 nm)
Protocol: (2) Calculations of the Percent Inhibitions (the IC50 Values of Test Compounds)
Streptavidin, obtained from Vector Laboratories, was dissolved in 0.1 M carbonate buffer (composition: 90 mM Na2CO3, 10 mM NaHCO3) at concentration of 40 μg/ml. After coating each well of microtiter plates (obtained from NUNC) with 50 μl of the above solution at 4° C. over night, each well was washed twice with PBS (composition: 13.7 mM NaCl, 0.27 mM KCl, 0.43 mM Na2HPO4, 0.14 mM KH2PO4) and blocked with 300 μl of 1% skim milk in PBS for 30 min. Additionally, each well was washed twice with PBS and added 50 μl of substrate DNA solution (2 pmol/μl). The microtiter plates were kept at room temperature for 30 min. Then, each well was washed twice with PBS and once with H2O.
Subsequently, in the each well prepared above were added 45 μl of the reaction buffer prepared from 12 μl of the buffer (composition: 150 mM MOPS (pH 7.2), 75 mM MnCl2, 50 mM 2-mercaptoethanol, 25% glycerol, 500 μg/ml bovine serum albumin-fraction V), 1 μl of target DNA (5 pmol/μl), and 32 μl of the distilled water. Additionally, 6 μl of either a test compound in DMSO or DMSO for positive control(PC) was mixed with the above reaction buffer, then 9 μl of an integrase solution (30 pmol) was added and mixed well. In the well of negative control (NC) was added 9 μl of the integrase dilution buffer (composition: 20 mM MOPS (pH7.2), 400 mM potassium glutamate, 1 mM EDTA, 0.1% NP-40, 20% glycerol, 1 mM DTT, 4M urea).
The microtiter plates were incubated at 30° C. for 1 hour. The reaction solution was removed and each well was washed twice with PBS. Subsequently, each well of the microtiter plates was filled with 100 μl of anti-digoxigenin antibody labeled with alkaline phosphatase (Sheep Fab fragment: obtained from Boehringer) and incubated at 30° C. for 1 hour. Then, each well was washed twice with 0.05% Tween20 in PBS and once with PBS. Next, 150 μl of the Alkaline phosphatase reaction buffer (composition: 10 mM p-Nitrophenylphosphate (obtained from Vector Laboratories), 5 mM MgCl2, 100 mM NaCl, 100 mM Tris-HCl (pH 9.5))was added in each well. […] The optical density (OD) at 405 nm of each well was measured and the percent inhibition was determined by the following expression.
The percent inhibition (%)=100[1-{(C abs.−NC abs.)/(PC abs.−NC abs.)}]
C abs.; the OD of the well of the compounds
NC abs.: the OD of the negative control (NC)
PC abs.: the OD of the positive control (PC)
IC50(μg/ml)=x−{(X−50)(x−y)/(X−Y)}

[2] = Simian immunodeficiency virus, 120 h

SMILES | IC50 (HIV-1 integrase) | melting point | also measured
O=C(/C=C(\O)c1nc[nH]n1)c1ccc(Cc2ccc(F)cc2)o1 [I-42, 1-[5-(4-fluorobenzyl)furan-2-yl]-3-hydroxy-3-(1H-1,2,4-triazol-3-yl)-propenone] | – | – | EC50 ([1]; Feline immunodeficiency virus, T-cell, 240 h, read-out: EC50): 0.3 µg/mL (≈ 0.958 µM)
Cc1cn([C@H]2C=C[C@@H](CO)O2)c(=O)[nH]c1=O [d4T] | – | – | Anti-HIV/SIV activity EC50, HIV-1 NL432 (HIV-1 NL432): 0.0061 µg/mL; Anti-HIV/SIV activity EC50, SIVagm (SIVagm SA212): 0.0045 µg/mL; Anti-HIV/SIV activity EC50, SIVmac (SIVmac MA239): 0.0034 µg/mL; Anti-HIV/SIV activity EC50, HIV-2 Rod (HIV-2 Rod): 0.0041 µg/mL
O=C(C=C(O)c1nc[nH]n1)c1cnc(Cc2ccc(F)cc2)o1 [I-150, 1-[2-(4-Fluorobenzyl)oxazolyl-5-yl]-3-hydroxy-3-(1H-1,2,4-triazol-3-yl)-propenone] | 3.12 µM | 200 to 203 °C | –
Cc1cn([C@H]2C[C@H](N=[N+]=[N-])[C@@H](CO)O2)c(=O)[nH]c1=O [AZT] | – | – | Anti-HIV/SIV activity EC50, HIV-1 NL432 (HIV-1 NL432): 0.00051 µg/mL; Anti-HIV/SIV activity EC50, SIVagm (SIVagm SA212): 0.00036 µg/mL; EC50 [1]: 0.048 µg/mL (≈ 0.18 µM); Anti-HIV/SIV activity EC50, SIVmac (SIVmac MA239): 0.00035 µg/mL; Anti-HIV/SIV activity EC50, HIV-2 Rod (HIV-2 Rod): 0.00028 µg/mL
O=C(C=C(O)c1nc[nH]n1)c1ccc(Cc2ccsc2)o1 [I-85, 3-Hydroxy-1-[[5-(thiophen-3-yl)methyl]furan-2-yl]-3-(1H-1,2,4-triazol-3-yl)-propenone] | 4.65 µM | 210 to 211 °C | –
O=C(C=C(O)c1nc[nH]n1)c1ccc(Cc2cccs2)o1 [I-83, 3-Hydroxy-1-[[5-(thiophen-2-yl)methyl]furan-2-yl]-3-(1H-1,2,4-triazol-3-yl)-propenone] | 4.98 µM | 207 to 208 °C | –
Cc1ccnc2c1NC(=O)c1cccnc1N2C1CC1 [nevirapine] | – | – | EC50 (HIV-1 NL432; Human immunodeficiency virus 1, 120 h): 0.013 µg/mL (≈ 0.0488 µM); EC50 (SIVagm SA212; [2]): > 20 µg/mL; EC50 (SIVmac MA239; [2]): > 20 µg/mL; EC50 (HIV-2 Rod; Human immunodeficiency virus 2, 120 h): > 20 µg/mL
O=C(C=C(O)c1nc[nH]n1)c1ccc(Cc2ccsc2Cl)o1 [I-91, 1-[[5-(2-Chlorothiophen-3-yl)methyl]furan-2-yl]-3-hydroxy-3-(1H-1,2,4-triazol-3-yl)-propenone] | 1.79 µM | 105 to 106 °C | –
O=C(/C=C(\O)c1nc[nH]n1)c1cc(C(=O)O)n(Cc2ccccc2)c1 [I-2, 1-[(1-Benzyl-5-carboxy)pyrrol-3-yl]-3-hydroxy-3-(1H-1,2,4-triazol-3-yl)-propenone] | 2.96 µM | 264 to 265 °C | –
COCc1nc(C(O)=CC(=O)c2ccc(Cc3ccc(F)cc3)o2)n[nH]1 [I-97] | 1.71 µM | 167 to 168 °C | –
O=C(C=C(O)c1nc[nH]n1)c1cc(Cl)c(Cc2ccc(F)cc2)o1 [I-86, 1-[4-Chloro-5-(4-fluorobenzyl)furan-2-yl]-3-hydroxy-3-(1H-1,2,4-triazol-3-yl)-propenone] | 1.44 µM | 203 to 204 °C | –
O=C(O)C(O)=CC(=O)c1ccc(Cc2ccc(F)cc2)o1 [I-54, 4-[5-(4-Fluorobenzyl)furan-2-yl]-2-hydroxy-4-oxo-2-butenoic acid] | 0.827 µM | 145 to 148 °C | –
Cc1nc(C(O)=CC(=O)c2ccc(Cc3ccc(F)cc3)o2)cs1 [I-96, 1-[5-(4-Fluorobenzyl)furan-2-yl]-3-hydroxy-3-(2-methylthiazol-4-yl)-propenone] | 2.45 µM | 96 to 98 °C | –
COC(=O)C(O)=CC(=O)c1ccc(Cc2ccc(F)cc2)o1 [I-53, 4-[5-(4-Fluorobenzyl)furan-2-yl]-2-hydroxy-4-oxo-2-butenoic acid methyl ester] | 7.89 µM | 102 to 104 °C | –
Cc1nc(C(O)=CC(=O)c2ccc(Cc3ccc(F)cc3)o2)n[nH]1 [I-60, 1-[5-(4-Fluorobenzyl)furan-2-yl]-3-hydroxy-3-(5-methyl-1H-1,2,4-triazol-3-yl)-propenone] | 2.11 µM | 179 to 182 °C | –
Nc1ccn([C@@H]2CS[C@H](CO)O2)c(=O)n1 [3TC] | – | – | Anti-HIV/SIV activity EC50, HIV-1 NL432 (HIV-1 NL432): 0.0084 µg/mL; Anti-HIV/SIV activity EC50, SIVagm (SIVagm SA212): 0.022 µg/mL; Anti-HIV/SIV activity EC50, SIVmac (SIVmac MA239): 0.0091 µg/mL; Anti-HIV/SIV activity EC50, HIV-2 Rod (HIV-2 Rod): 0.022 µg/mL
CC(C)c1nc(COC(N)=O)n(Cc2ccncc2)c1Sc1cc(Cl)cc(Cl)c1 [S-1153] | – | – | Anti-HIV/SIV activity EC50, HIV-1 NL432 (HIV-1 NL432): 0.00077 µg/mL; Anti-HIV/SIV activity EC50, SIVagm (SIVagm SA212): 1.5 µg/mL; EC50 [1]: >5 µg/mL; Anti-HIV/SIV activity EC50, SIVmac (SIVmac MA239): >4 µg/mL; Anti-HIV/SIV activity EC50, HIV-2 Rod (HIV-2 Rod): >4 µg/mL
CCCc1nc(C(O)=CC(=O)c2ccc(Cc3ccc(F)cc3)o2)n[nH]1 [I-112, 1-[5-(4-Fluorobenzyl)furan-2-yl]-3-hydroxy-3-(5-propyl-1H-1,2,4-triazol-3yl)-propenone] | 1.72 µM | 167 to 168 °C | –
O=C(C=C(O)c1nc[nH]n1)c1ccc(Cc2ccc(F)cc2F)o1 [I-74, 1-[5-(2,4-Difluorobenzyl)furan-2-yl]-3-hydroxy-3-(1H-1,2,4-triazol-3-yl)-propenone] | 1.3 µM | 171 to 173 °C | –
O=C(C=C(O)c1nc[nH]n1)c1ccc(C(O)c2ccc(F)cc2)o1 (stereo not drawn) [I-94, 1-[5-(4-Fluorophenyl-hydroxy-methyl)furan-2-yl]-3-hydroxy-3-(1H-1,2,4-triazol-3-yl)-propenone] | 4.86 µM | 191 to 192 °C (dec.) | –
